Reference: US8455475B2 (Gruenenthal GmbH, priority 2009, dated 2013)

Molecular target: T1, rat B1R (bradykinin receptor 1) (Rattus norvegicus, UniProt P97583)
T1 construct: expressed in transfected cells; host or cells: CHO K1 cells
T1 sequence (P97583 1-337): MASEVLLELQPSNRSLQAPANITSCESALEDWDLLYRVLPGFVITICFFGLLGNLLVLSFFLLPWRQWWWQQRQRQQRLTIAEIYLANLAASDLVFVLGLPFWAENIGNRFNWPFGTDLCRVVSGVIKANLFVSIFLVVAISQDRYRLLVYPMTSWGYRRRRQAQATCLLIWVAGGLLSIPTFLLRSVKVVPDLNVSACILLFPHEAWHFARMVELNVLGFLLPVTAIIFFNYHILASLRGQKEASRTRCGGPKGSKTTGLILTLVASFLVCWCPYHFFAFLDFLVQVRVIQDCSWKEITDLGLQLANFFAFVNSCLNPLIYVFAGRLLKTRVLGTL
Test: FLIPR Ca2+ assay (Fluo-4) on CHO K1 cells stably transfected with the B1R gene of the rat (rB1R cells): % inhibition at 10 μM / IC50, agonist Des-Arg9-bradykinin
Format: cell-based
Details: CHO-K1, rat B1R
Summary of the method: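 Peak fluorescence counts read on FLIPR (λex 488, λem 540 nm) after two additions: compound first, then agonist at EC80 after 10–20 min. Human line challenged with Lys-Des-Arg9-bradykinin, rat line with Des-Arg9-bradykinin. Suppression of Ca2+ inflow expressed as % of maximum inhibition.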

For `CC(C)(C)CC(=O)N1CCC2(CC1)CCN(C(=O)c1ccc3c(c1)C(N(C(=O)c1ccccc1Cl)C1CC1)CC3)C2` (centres unmarked) [IND_CC-604, 2-Chloro-N-cyclopropyl-N-[6-[8-(3,3-dimethyl-butanoyl)-2,8-diazaspiro[4.5]decane-2-carbonyl]-2,3-dihydro-1H-inden-1-yl]-benzamide], the inhibition at 10 µM was 94%.
`O=C(c1ccc2c(c1)C(N(C(=O)c1ccccc1Cl)C1CC1)CC2)N1CCC2(CCN(C(=O)c3ccc(F)cc3Cl)CC2)C1` (centres unmarked) [IND_CC-605, 2-Chloro-N-[6-[8-(2-chloro-4-fluoro-benzoyl)-2,8-diazaspiro[4.5]decane-2-carbonyl]-2,3-dihydro-1H-inden-1-yl]-N-cyclopropyl-benzamide] showed an inhibition at 10 µM of 66%.
In the case of `O=C(c1ccc2c(c1)C(N(C(=O)c1ccccc1Cl)C1CC1)CC2)N1CCC2(CCN(C(=O)c3ccc(F)cc3F)CC2)C1` (centres unmarked) [IND_CC-606, 2-Chloro-N-cyclopropyl-N-[6-[8-(2,4-difluoro-benzoyl)-2,8-diazaspiro[4.5]decane-2-carbonyl]-2,3-dihydro-1H-inden-1-yl]-benzamide], the inhibition at 10 µM is reported as 66%.
`Cn1nc(C(C)(C)C)cc1C(=O)N1CCC2(CCN(C(=O)c3ccc4c(c3)C(N(C(=O)c3ccccc3Cl)C3CC3)CC4)C2)CC1` (centres unmarked) [IND_CC-607, N-[6-[8-(5-tert-Butyl-2-methyl-2H-pyrazole-3-carbonyl)-2,8-diazaspiro[4.5]decane-2-carbonyl]-2,3-dihydro-1H-inden-1-yl]-2-chloro-N-cyclopropyl-benzamide] was tested, and the inhibition at 10 µM was 67%.
`O=C(NC1CCc2ccc(C(=O)N3CCC4(CC3)CCN(S(=O)(=O)c3ccc(Cl)s3)CC4)cc21)c1ccccc1Cl` (centres unmarked) [IND_CC-608, 2-Chloro-N-[6-[9-[(5-chloro-thiophen-2-yl)sulfonyl]-3,9-diazaspiro[5.5]undecane-3-carbonyl]-2,3-dihydro-1H-inden-1-yl]-benzamide] showed an inhibition at 10 µM of 102%.
`O=C(NC1CCc2ccc(C(=O)N3CCC4(CC3)CCN(S(=O)(=O)c3ccc(F)cc3F)CC4)cc21)c1ccccc1Cl` (centres unmarked) [IND_CC-609, 2-Chloro-N-[6-[9-[(2,4-difluoro-phenyl)sulfonyl]-3,9-diazaspiro[5.5]undecane-3-carbonyl]-2,3-dihydro-1H-inden-1-yl]-benzamide] was tested, and the inhibition at 10 µM was 101%.
`N#Cc1cc(S(=O)(=O)N2CCC3(CCN(C(=O)c4ccc5c(c4)C(NC(=O)c4ccccc4Cl)CC5)CC3)CC2)ccc1F` (centres unmarked) [IND_CC-610, 2-Chloro-N-[6-[9-[(3-cyano-4-fluoro-phenyl)sulfonyl]-3,9-diazaspiro[5.5]undecane-3-carbonyl]-2,3-dihydro-1H-inden-1-yl]-benzamide] was tested, and the inhibition at 10 µM was 103%.
Molecule `N#Cc1ccccc1S(=O)(=O)N1CCC2(CCN(C(=O)c3ccc4c(c3)C(NC(=O)c3ccccc3Cl)CC4)CC2)CC1` (centres unmarked) [IND_CC-611, 2-Chloro-N-[6-[9-[(2-cyano-phenyl)sulfonyl]-3,9-diazaspiro[5.5]undecane-3-carbonyl]-2,3-dihydro-1H-inden-1-yl]-benzamide] has an inhibition at 10 µM of 98%.
Molecule `Cn1ccc2c(S(=O)(=O)N3CCC4(CCN(C(=O)c5ccc6c(c5)C(NC(=O)c5ccccc5Cl)CC6)CC4)CC3)cccc21` (centres unmarked) [IND_CC-612, 2-Chloro-N-[6-[9-[(1-methyl-1H-indol-4-yl)sulfonyl]-3,9-diazaspiro[5.5]undecane-3-carbonyl]-2,3-dihydro-1H-inden-1-yl]-benzamide] has an inhibition at 10 µM of 65%.
In the case of `CC(C)S(=O)(=O)N1CCC2(CCN(C(=O)c3ccc4c(c3)C(NC(=O)c3ccccc3Cl)CC4)CC2)CC1` (centres unmarked) [IND_CC-613, 2-Chloro-N-[6-[9-(isopropylsulfonyl)-3,9-diazaspiro[5.5]undecane-3-carbonyl]-2,3-dihydro-1H-inden-1-yl]-benzamide], the inhibition at 10 µM is reported as 102%.
With `Cn1ccc2cc(S(=O)(=O)N3CCC4(CCN(C(=O)c5ccc6c(c5)C(NC(=O)c5ccccc5Cl)CC6)CC4)CC3)ccc21` (centres unmarked) [IND_CC-614, 2-Chloro-N-[6-[9-[(1-methyl-1H-indol-5-yl)sulfonyl]-3,9-diazaspiro[5.5]undecane-3-carbonyl]-2,3-dihydro-1H-inden-1-yl]-benzamide] the inhibition at 10 µM was 67%.
Molecule `O=C(c1ccc2c(c1)C(N(C(=O)c1ccccc1Cl)C1CC1)CC2)N1CCC2(CCN(S(=O)(=O)c3ccc(Cl)s3)CC2)C1` (centres unmarked) [IND_CC-615, 2-Chloro-N-[6-[8-[(5-chloro-thiophen-2-yl)sulfonyl]-2,8-diazaspiro[4.5]-decane-2-carbonyl]-2,3-dihydro-1H-inden-1-yl]-N-cyclopropyl-benzamide] has an inhibition at 10 µM of 67%.
For `O=C(c1ccc2c(c1)C(N(C(=O)c1ccccc1Cl)C1CC1)CC2)N1CCC2(CCN(S(=O)(=O)c3ccc(F)cc3F)CC2)C1` (centres unmarked) [IND_CC-616, 2-Chloro-N-cyclopropyl-N-[6-[8-[(2,4-difluoro-phenyl)sulfonyl]-2,8-diazaspiro[4.5]decane-2-carbonyl]-2,3-dihydro-1H-inden-1-yl]-benzamide], the inhibition at 10 µM was 81%.
`N#Cc1cc(S(=O)(=O)N2CCC3(CCN(C(=O)c4ccc5c(c4)C(N(C(=O)c4ccccc4Cl)C4CC4)CC5)C3)CC2)ccc1F` (centres unmarked) [IND_CC-617, 2-Chloro-N-[6-[8-[(3-cyano-4-fluoro-phenyl)sulfonyl]-2,8-diazaspiro[4.5]-decane-2-carbonyl]-2,3-dihydro-1H-inden-1-yl]-N-cyclopropyl-benzamide] was tested, and the inhibition at 10 µM was 67%.
`N#Cc1ccccc1S(=O)(=O)N1CCC2(CCN(C(=O)c3ccc4c(c3)C(N(C(=O)c3ccccc3Cl)C3CC3)CC4)C2)CC1` (centres unmarked) [IND_CC-618, 2-Chloro-N-[6-[8-[(2-cyano-phenyl)sulfonyl]-2,8-diazaspiro[4.5]decane-2-carbonyl]-2,3-dihydro-1H-inden-1-yl]-N-cyclopropyl-benzamide] showed an inhibition at 10 µM of 61%.
`Cn1ccc2cc(S(=O)(=O)N3CCC4(CCN(C(=O)c5ccc6c(c5)C(N(C(=O)c5ccccc5Cl)C5CC5)CC6)C4)CC3)ccc21` (centres unmarked) [IND_CC-619, 2-Chloro-N-cyclopropyl-N-[6-[8-[(1-methyl-1H-indol-5-yl)sulfonyl]-2,8-diazaspiro[4.5]decane-2-carbonyl]-2,3-dihydro-1H-inden-1-yl]-benzamide] was tested, and the inhibition at 10 µM was 57%.
With `O=C(NC1CCc2ccc(C(=O)N3CCC4(CCN(Cc5ccc[nH]5)CC4)C3)cc21)c1cc(Cl)ccc1F` (centres unmarked) [IND_CC-620, 5-Chloro-2-fluoro-N-[6-[8-(1H-pyrrol-2-yl-methyl)-2,8-diazaspiro[4.5]decane-2-carbonyl]-2,3-dihydro-1H-inden-1-yl]-benzamide] the inhibition at 10 µM was 54%.
`O=C(NC1CCc2ccc(C(=O)N3CCC4(CCN(Cc5ccc(F)c(F)c5)CC4)C3)cc21)c1cc(Cl)ccc1F` (centres unmarked) [IND_CC-621, 5-Chloro-N-[6-[8-[(3,4-difluoro-phenyl)-methyl]-2,8-diazaspiro[4.5]decane-2-carbonyl]-2,3-dihydro-1H-inden-1-yl]-2-fluoro-benzamide] showed an inhibition at 10 µM of 67%.
In the case of `O=C(NC1CCc2ccc(C(=O)N3CCC4(CCN(Cc5ccc(F)cc5F)CC4)C3)cc21)c1cc(Cl)ccc1F` (centres unmarked) [IND_CC-622, 5-Chloro-N-[6-[8-[(2,4-difluoro-phenyl)-methyl]-2,8-diazaspiro[4.5]decane-2-carbonyl]-2,3-dihydro-1H-inden-1-yl]-2-fluoro-benzamide], the inhibition at 10 µM is reported as 69%.
`COc1ccc(CN2CCC3(CC2)CCN(C(=O)c2ccc4c(c2)C(NC(=O)c2cc(Cl)ccc2F)CC4)C3)cc1F` (centres unmarked) [IND_CC-623, 5-Chloro-2-fluoro-N-[6-[8-[(3-fluoro-4-methoxy-phenyl)-methyl]-2,8-diazaspiro[4.5]decane-2-carbonyl]-2,3-dihydro-1H-inden-1-yl]-benzamide] gave an inhibition at 10 µM of 59%.
